In ChEMBL document CHEMBL6109125, “A New Protractor Potentiates Glucagon-Like Peptide 1 with Slow-Release Depot and Long-Term Action” (J Med Chem, 2025):
One block for each compound: values may come before it. The source made the active and inactive calls. The rule behind the calls is not given here.

Columns and labels:
[1] = Apparent volume of distribution in BALB/c mouse at 0.5 mg/kg, iv measured up to 48 hrs by LC-MS/MS analysis; type: ADME, organism-based; details: in vivo, read-out: Vz
[2] = Apparent volume of distribution in Sprague-Dawley rat at 1 mg/kg, iv measured up to 48 hrs by LC-MS/MS analysis; type: ADME, organism-based; details: in vivo, read-out: Vz
Mus musculus [3] = test: Anti-hyperglycemic activity in type-2 diabetes db/db mouse assessed as regulation of blood glucose level at 3 to 600 nmol/kg, sc measured up to 96 hrs; type: functional, organism-based
Mus musculus [4] = test: Anti-hyperglycemic activity in 16 hr-fasted type-2 diabetes db/db mouse assessed as homeostasis of blood glucose level at 100 nmol/kg, sc pretreated for 0.5 hrs followed by glucose administration measured for 2 hrs; type: functional, organism-based; details: time 2.5 hrs
Mus musculus [5] = test: Anti-hyperglycemic activity in 16 hr-fasted type-2 diabetes db/db mouse at 100 nmol/kg, sc pretreated for 0.5 hrs followed by glucose administration measured for 2 hrs by OGTT method; type: functional, organism-based; details: time 2.5 hrs
Mus musculus [6] = test: Anti-hyperglycemic activity in well-fed type-2 diabetes db/db mouse assessed as blood glucose level at 100 nmol/kg, sc administered on every 48 hrs; type: functional
[7] = target: T1, Glucagon-like peptide 1 receptor (Homo sapiens, UniProt P43220); test: Agonist activity at GLP-1R (unknown origin) expressed in HEK293 cells co-expressing CRE-Luc assessed as increase in intracellular cAMP accumulation in presence of 10% FBS by luciferase based assay; type: functional, cell-based; details: read-out: EC50
[8] = target: T1, Glucagon-like peptide 1 receptor; test: Agonist activity at GLP-1R (unknown origin) expressed in HEK293 cells co-expressing CRE-Luc assessed as increase in intracellular cAMP accumulation by luciferase based assay; type: functional, cell-based; details: read-out: EC50
[9] = target: T1, Glucagon-like peptide 1 receptor; test: Agonist activity at GLP-1R (unknown origin) expressed in HEK293 cells co-expressing CRE-Luc assessed as increase in intracellular cAMP accumulation in presence of 2% HSA by luciferase based assay; type: functional, cell-based; details: read-out: EC50
[10] = Selectivity ratio of EC50 for agonist activity at GLP-1R (unknown origin) expressed in HEK293 cells co-expressing CRE-Luc assessed as increase in intracellular cAMP accumulation in presence of 2% HSA to EC50 for agonist activity at GLP-1R (unknown origin) expressed in HEK293 cells co-expressing CRE-Luc assessed as increase in intracellular cAMP accumulation; type: cell-based
[11] = Stability in Sprague-Dawley rat plasma assessed as compound remaining measured after 96 hrs by RP-HPLC analysis; type: ADME, cell-free; details: read-out: Stability
[12] = Stability in Sprague-Dawley rat plasma assessed as drug degradation by measuring half life measured after 96 hrs by RP-HPLC analysis; type: ADME, cell-free
Dipeptidyl peptidase 4 [13] = target: T2, Dipeptidyl peptidase 4 (Rattus norvegicus, UniProt P14740); test: Stability in Sprague-Dawley rat plasma assessed as DPP4-mediated drug degradation by measuring Lys(CBB)Gly metabolite formation measured after 96 hrs by mass spectrometry; type: ADME, cell-free
Dipeptidyl peptidase 4 [14] = target: T2, Dipeptidyl peptidase 4; test: Stability in Sprague-Dawley rat plasma assessed as DPP4-mediated drug degradation by measuring Lys(CBB) metabolite formation measured after 96 hrs by mass spectrometry; type: ADME, cell-free
[15] = Clearance in BALB/c mouse at 0.5 mg/kg, iv measured up to 48 hrs by LC-MS/MS analysis; type: ADME, organism-based; details: in vivo
[16] = AUClast in BALB/c mouse at 0.5 mg/kg, iv measured up to 48 hrs by LC-MS/MS analysis; type: ADME, organism-based; details: in vivo
[17] = Tmax in BALB/c mouse at 0.5 mg/kg, sc measured up to 48 hrs by LC-MS/MS analysis; type: ADME, organism-based; details: in vivo
[18] = AUClast in BALB/c mouse at 0.5 mg/kg, sc measured up to 48 hrs by LC-MS/MS analysis; type: ADME, organism-based; details: in vivo
[19] = MRT in BALB/c mouse at 0.5 mg/kg, sc measured up to 48 hrs by LC-MS/MS analysis; type: ADME, organism-based; details: in vivo
[20] = Half life in BALB/c mouse at 0.5 mg/kg, sc measured up to 48 hrs by LC-MS/MS analysis; type: ADME, organism-based; details: in vivo
[21] = Clearance in Sprague-Dawley rat at 1 mg/kg, iv measured up to 48 hrs by LC-MS/MS analysis; type: ADME, organism-based; details: in vivo
[22] = AUClast in Sprague-Dawley rat at 1 mg/kg, iv measured up to 48 hrs by LC-MS/MS analysis; type: ADME, organism-based; details: in vivo
[23] = Tmax in Sprague-Dawley rat at 1 mg/kg, sc measured up to 48 hrs by LC-MS/MS analysis; type: ADME, organism-based; details: in vivo
[24] = AUClast in Sprague-Dawley rat at 1 mg/kg, sc measured up to 48 hrs by LC-MS/MS analysis; type: ADME, organism-based; details: in vivo
[25] = MRT in Sprague-Dawley rat at 1 mg/kg, sc measured up to 48 hrs by LC-MS/MS analysis; type: ADME, organism-based; details: in vivo
[26] = Half life in Sprague-Dawley rat at 1 mg/kg, sc measured up to 48 hrs by LC-MS/MS analysis; type: ADME, organism-based; details: in vivo
Albumin = Albumin (Homo sapiens, UniProt P02768); test: Binding affinity to human serum albumin immobilized on AR2G biosensor assessed as dissociation constant incubated for 3 mins by BLI assay; type: ADME
[27] = Binding affinity to collagen type I (unknown origin) immobilized on AR2G biosensor assessed as dissociation constant incubated for 3 mins by BLI assay; set-up: species or system Homo sapiens
Mus musculus [28] = test: Anti-hyperglycemic activity in type-2 diabetes db/db mouse assessed as regulation of blood glucose level administered subcutaneously measured up to 96 hrs; type: functional, organism-based; details: dose 3-600 nmol/kg, route sc
Mus musculus [29] = test: Anti-hyperglycemic activity in type-2 diabetes db/db mouse assessed as blood glucose level at 3 to 600 nmol/kg, sc measured up to 48 hrs; type: functional; details: dose 3-600 nmol/kg
Mus musculus [30] = test: Anti-hyperglycemic activity in type-2 diabetes db/db mouse assessed as reduction in food intake at 100 nmol/kg, sc measured for 48 hrs; type: functional, organism-based

T1 sequence (P43220 whole entry): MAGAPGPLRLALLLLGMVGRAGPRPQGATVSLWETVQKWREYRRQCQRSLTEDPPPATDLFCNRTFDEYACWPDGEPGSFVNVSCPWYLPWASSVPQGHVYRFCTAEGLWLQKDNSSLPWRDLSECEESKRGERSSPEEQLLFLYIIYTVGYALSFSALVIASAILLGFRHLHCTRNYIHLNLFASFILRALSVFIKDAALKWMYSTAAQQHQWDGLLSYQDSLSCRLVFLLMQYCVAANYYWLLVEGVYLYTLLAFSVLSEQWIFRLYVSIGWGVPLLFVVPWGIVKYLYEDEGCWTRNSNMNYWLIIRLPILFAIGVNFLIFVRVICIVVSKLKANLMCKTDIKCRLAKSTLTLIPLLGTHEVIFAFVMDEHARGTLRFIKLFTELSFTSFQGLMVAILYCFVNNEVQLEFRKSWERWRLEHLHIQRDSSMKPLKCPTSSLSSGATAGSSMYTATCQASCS
T2 sequence (P14740 whole entry): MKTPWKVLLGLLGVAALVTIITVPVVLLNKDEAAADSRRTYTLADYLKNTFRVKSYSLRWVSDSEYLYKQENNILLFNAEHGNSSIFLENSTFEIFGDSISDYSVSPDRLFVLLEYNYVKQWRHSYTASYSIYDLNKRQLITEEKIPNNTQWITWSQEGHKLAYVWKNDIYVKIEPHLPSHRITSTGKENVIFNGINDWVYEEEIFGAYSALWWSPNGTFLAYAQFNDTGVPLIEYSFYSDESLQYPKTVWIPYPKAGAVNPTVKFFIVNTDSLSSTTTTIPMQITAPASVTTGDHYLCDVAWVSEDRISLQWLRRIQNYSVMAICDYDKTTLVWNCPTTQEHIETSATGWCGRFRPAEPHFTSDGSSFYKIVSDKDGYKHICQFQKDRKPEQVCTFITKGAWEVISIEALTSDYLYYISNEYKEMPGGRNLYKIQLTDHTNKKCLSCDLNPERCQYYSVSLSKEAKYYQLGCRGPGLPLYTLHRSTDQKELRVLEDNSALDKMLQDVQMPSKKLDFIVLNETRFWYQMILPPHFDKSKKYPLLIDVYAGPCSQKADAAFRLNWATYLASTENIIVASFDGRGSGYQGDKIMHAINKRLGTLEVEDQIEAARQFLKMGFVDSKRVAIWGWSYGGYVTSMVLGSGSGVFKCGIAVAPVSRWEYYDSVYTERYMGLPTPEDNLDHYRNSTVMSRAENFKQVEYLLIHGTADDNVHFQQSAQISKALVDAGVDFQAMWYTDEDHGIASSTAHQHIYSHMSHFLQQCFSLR
Albumin, sequence (P02768 whole entry): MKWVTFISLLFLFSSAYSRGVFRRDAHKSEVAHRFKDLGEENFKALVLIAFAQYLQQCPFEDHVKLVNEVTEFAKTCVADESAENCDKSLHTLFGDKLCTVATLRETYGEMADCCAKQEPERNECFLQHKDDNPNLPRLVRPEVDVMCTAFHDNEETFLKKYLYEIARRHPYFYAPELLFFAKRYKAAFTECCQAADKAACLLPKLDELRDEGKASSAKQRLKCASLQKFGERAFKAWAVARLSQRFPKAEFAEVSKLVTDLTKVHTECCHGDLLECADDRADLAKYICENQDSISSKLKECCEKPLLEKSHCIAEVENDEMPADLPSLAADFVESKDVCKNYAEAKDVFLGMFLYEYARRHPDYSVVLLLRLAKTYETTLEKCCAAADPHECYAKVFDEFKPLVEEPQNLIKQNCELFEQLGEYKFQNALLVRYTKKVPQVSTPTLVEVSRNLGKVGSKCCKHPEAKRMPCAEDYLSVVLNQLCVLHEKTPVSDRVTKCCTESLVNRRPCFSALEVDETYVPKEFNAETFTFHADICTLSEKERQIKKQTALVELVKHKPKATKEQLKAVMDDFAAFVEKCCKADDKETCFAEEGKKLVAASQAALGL

Vd [1]: 0.083 L/kg | Vd [2]: 0.163 L/kg | EC50 (Mus musculus [3]): 2 nmol/kg
Compound: CC[C@H](C)[C@H](NC(=O)[C@H](Cc1ccccc1)NC(=O)[C@H](CCC(=O)O)NC(=O)[C@H](CCCCNC(=O)COCCOCCNC(=O)COCCOCCNC(=O)CC[C@H](NC(=O)CCCCCCCCCCCCCCCCC(=O)O)C(=O)O)NC(=O)[C@H](C)NC(=O)[C@H](C)NC(=O)[C@H](CCC(N)=O)NC(=O)CNC(=O)[C@H](CCC(=O)O)NC(=O)[C@H](CC(C)C)NC(=O)[C@H](Cc1ccc(O)cc1)NC(=O)[C@H](CO)NC(=O)[C@H](CO)NC(=O)[C@@H](NC(=O)[C@H](CC(=O)O)NC(=O)[C@H](CO)NC(=O)[C@@H](NC(=O)[C@H](Cc1ccccc1)NC(=O)[C@@H](NC(=O)CNC(=O)[C@H](CCC(=O)O)NC(=O)C(C)(C)NC(=O)[C@@H](N)Cc1cnc[nH]1)[C@@H](C)O)[C@@H](C)O)C(C)C)C(=O)N[C@@H](C)C(=O)N[C@@H](Cc1c[nH]c2ccccc12)C(=O)N[C@@H](CC(C)C)C(=O)N[C@H](C(=O)N[C@@H](CCCNC(=N)N)C(=O)NCC(=O)N[C@@H](CCCNC(=N)N)C(=O)NCC(=O)O)C(C)C
Activity (Mus musculus [4]): Active | Activity (Mus musculus [5]): Active | Activity (Mus musculus [6]): <10 mM

EC50 [7]: 0.21 pM | EC50 [8]: 0.37 pM | EC50 [9]: 1.99 pM | remaining at 96 h [11]: 40% | half-life [12]: 24 h | Drug metabolism (Dipeptidyl peptidase 4 [13]): metabolite_detected | Drug metabolism (Dipeptidyl peptidase 4 [14]): metabolite_detected | Vd [1]: 0.056 L/kg | clearance [15]: 0.0667 mL/min/kg | AUC [16]: 111.886 h/µg/mL | Tmax [17]: 12 h | AUC [18]: 123.884 h/µg/mL | MRT [19]: 18.1 h | half-life [20]: 32 h | Vd [2]: 0.15 L/kg | clearance [21]: 0.25 mL/min/kg | AUC [22]: 67.28 h/µg/mL | Tmax [23]: 12 h | AUC [24]: 28.81 h/µg/mL | MRT [25]: 18 h | half-life [26]: 32 h | Kd (Albumin): 520000 pM | Kd [27]: 390000 pM | EC50 (Mus musculus [3]): 30 nmol/kg
Compound: CCOc1ccc(Nc2ccc(/C(=C3C=C/C(=[N+](\CC)Cc4cccc(S(=O)(=O)[O-])c4)C=C\3C)c3ccc(N(CC)Cc4cccc(S(=O)(=O)NCCCCCC(=O)NCCOCCOCCOCCOCCOCCOCCOCCOCCC(=O)NCCCC[C@H](NC(=O)[C@@H](NC(=O)[C@H](CC(C)C)NC(=O)[C@H](Cc5c[nH]c6ccccc56)NC(=O)[C@H](C)NC(=O)[C@@H](NC(=O)[C@H](Cc5ccccc5)NC(=O)[C@H](CCC(=O)O)NC(=O)[C@H](CCCNC(=N)N)NC(=O)[C@H](C)NC(=O)[C@H](C)NC(=O)[C@H](CCC(N)=O)NC(=O)CNC(=O)[C@H](CCC(=O)O)NC(=O)[C@H](CC(C)C)NC(=O)[C@H](Cc5ccc(O)cc5)NC(=O)[C@H](CO)NC(=O)[C@H](CO)NC(=O)[C@@H](NC(=O)[C@H](CC(=O)O)NC(=O)[C@H](CO)NC(=O)[C@@H](NC(=O)[C@H](Cc5ccccc5)NC(=O)[C@@H](NC(=O)CNC(=O)[C@H](CCC(=O)O)NC(=O)CNC(=O)[C@@H](N)Cc5c[nH]cn5)[C@@H](C)O)[C@@H](C)O)C(C)C)[C@@H](C)CC)C(C)C)C(=O)NCC(=O)N[C@@H](CCCNC(=N)N)C(N)=O)c4)cc3C)cc2)cc1
Ratio EC50 [10]: 5.38 | Activity (Mus musculus [28]): Dose-dependent-effect | Activity (Mus musculus [29]): <10 mM | Activity (Mus musculus [4]): Active | Activity (Mus musculus [5]): Active | Activity (Mus musculus [6]): <10 mM | Activity (Mus musculus [30]): Active
